In patent US20220371988A1, “TRPV1 AGONIST AND PREPARATION METHOD THEREFOR AND USE THEREOF” (NANJING DELOVA BIOTECH CO. LTD., priority 2019, published 2022):
In brackets after ≈: the same amount, converted by molar mass. Like-named read-outs stand apart in the source and are kept apart here.

Columns and labels:
[1] = tested on: rats as models of pain after incision; test: Mechanical allodynia test (Von Frey method) in rats as models of pain after incision; type: in vivo, SD rat
[2] = tested on: rats as models of pain after incision; test: Thermal hyperalgesia test (Hargreaves method) in rats as models of pain after incision; type: in vivo, SD rat
[3] = parent drug, cited from earlier work
[4] = HD group: A-17 0.6 mg/animal, parent 0.36 mg/animal
[5] = LD group: A-17 0.15 mg/animal, parent 0.09 mg/animal

Row | Molecule | Time after surgery at which paw withdrawal threshold (PWT) was increased vs blank preparation group (P<0.05) [1, 4] [h] | Time after surgery at which paw withdrawal threshold (PWT) was increased vs blank preparation group (P<0.05) [1, 5] | Effect on overall thermal hyperalgesia (AUC of time-TWL curve) within 7 days vs blank preparation ([2]; HD group: A-17 0.6 mg/animal (P<0.001), parent 0.36 mg/animal (P<0.01)) | Duration of analgesic effect on thermal hyperalgesia [2, 4] [days] | Effect on overall thermal hyperalgesia (AUC of time-TWL curve) within 7 days vs blank preparation [2, 5] | Time after surgery at which thermal withdrawal latency (TWL) was increased vs blank preparation group (P<0.05) ([2]; LD group: A-17 0.15 mg/animal, parent 0.09 mg/animal, injection at incision site) [h] | Solubility in water ([3]; at 25° C.) [µg/mL] | Log P [3] | Release half-life t1/2 (pH 4.5) | Release half-life t1/2 (pH 7.4)
1 | COc1cc(CNC(=O)CCCC/C=C/C(C)C)ccc1O [trans-8-methyl-N-vanillyl-6-nonenamide] | 4 | no significant effect | effective in relieving the overall thermal hyperalgesia | 3 | no significant effect | 1 | 8.41 (≈ 27.5 µM) | 3.8 |  | 
2 | (E)-2-methoxy-4-(8-methylnonanamide)phenyl 2-([[1,4′-bipiperidin]-1′-yl) propanoate hydrochloride [Compound A-16] |  |  |  |  |  |  |  |  | About 73 h | About 157 h
